Measurements reported in ChEMBL document CHEMBL3875166, “Synthesis and biological evaluation of new 6-hydroxypyridazinone benzisoxazoles: Potential multi-receptor-targeting atypical antipsychotics” (Eur J Med Chem, 2016).

Experiments:
[1] = molecular target: 5-hydroxytryptamine receptor 6 (Homo sapiens, UniProt P50406); assay: Displacement of [3H]lysergic acid diethylamide from human recombinant 5-HT6 receptor expressed in CHO cell membranes for 30 mins by liquid scintillation counting analysis
5-hydroxytryptamine receptor 6, sequence (P50406 whole entry): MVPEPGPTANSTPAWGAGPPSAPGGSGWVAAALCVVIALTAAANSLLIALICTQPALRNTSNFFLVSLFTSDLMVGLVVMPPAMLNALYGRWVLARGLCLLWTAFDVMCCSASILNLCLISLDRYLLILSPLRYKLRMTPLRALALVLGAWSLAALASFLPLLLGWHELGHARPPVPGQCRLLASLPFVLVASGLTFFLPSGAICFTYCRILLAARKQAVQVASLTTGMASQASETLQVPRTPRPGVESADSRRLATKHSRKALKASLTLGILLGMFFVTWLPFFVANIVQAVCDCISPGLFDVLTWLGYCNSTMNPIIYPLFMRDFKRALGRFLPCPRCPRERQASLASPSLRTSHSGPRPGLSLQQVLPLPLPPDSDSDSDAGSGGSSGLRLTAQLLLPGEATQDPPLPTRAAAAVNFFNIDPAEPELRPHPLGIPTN

[2] = molecular target: T1, 5-hydroxytryptamine receptor 2C (Rattus norvegicus, UniProt P08909); assay: Displacement of [3H]mesulergine from 5-HT2C receptor in Sprague-Dawley rat cerebral cortex incubated for 15 mins in presence of spiperone by liquid scintillation counting analysis
T1 sequence (P08909 whole entry): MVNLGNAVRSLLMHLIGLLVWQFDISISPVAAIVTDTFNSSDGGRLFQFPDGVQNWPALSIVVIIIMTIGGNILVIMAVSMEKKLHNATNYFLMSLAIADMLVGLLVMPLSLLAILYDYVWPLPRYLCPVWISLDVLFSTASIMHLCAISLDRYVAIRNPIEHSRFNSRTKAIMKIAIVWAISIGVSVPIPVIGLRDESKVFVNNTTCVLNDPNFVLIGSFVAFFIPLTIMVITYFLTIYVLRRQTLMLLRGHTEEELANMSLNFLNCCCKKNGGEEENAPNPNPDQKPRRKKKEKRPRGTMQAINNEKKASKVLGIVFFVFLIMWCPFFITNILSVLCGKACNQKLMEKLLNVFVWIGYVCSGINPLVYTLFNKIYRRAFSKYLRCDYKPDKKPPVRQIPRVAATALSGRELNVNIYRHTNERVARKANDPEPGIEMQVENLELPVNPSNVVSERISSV

[3] = molecular target: D(2) dopamine receptor (Rattus norvegicus, UniProt P61169); assay: Displacement of [3H]spiperone from dopamine D2 receptor in Sprague-Dawley rat striatum incubated for 30 mins by liquid scintillation counting analysis
D(2) dopamine receptor, sequence (P61169 whole entry): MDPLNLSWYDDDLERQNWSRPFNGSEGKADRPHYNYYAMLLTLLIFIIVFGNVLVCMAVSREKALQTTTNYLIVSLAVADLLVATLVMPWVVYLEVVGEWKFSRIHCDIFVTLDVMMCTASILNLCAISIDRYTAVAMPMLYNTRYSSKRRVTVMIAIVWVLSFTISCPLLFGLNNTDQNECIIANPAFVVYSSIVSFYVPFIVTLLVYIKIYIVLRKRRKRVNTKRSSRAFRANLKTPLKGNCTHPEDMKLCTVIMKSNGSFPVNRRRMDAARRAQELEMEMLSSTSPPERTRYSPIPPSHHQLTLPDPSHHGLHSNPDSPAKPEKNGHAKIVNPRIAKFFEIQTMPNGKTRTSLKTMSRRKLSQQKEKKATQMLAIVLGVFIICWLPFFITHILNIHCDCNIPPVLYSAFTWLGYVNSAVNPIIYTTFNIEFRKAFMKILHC

[4] = molecular target: T2, 5-hydroxytryptamine receptor 1A (Rattus norvegicus, UniProt P19327); assay: Displacement of [3H]8-OH-DPAT from 5-HT1A receptor in Sprague-Dawley rat cerebral cortex incubated for 30 mins by liquid scintillation counting analysis
T2 sequence (P19327 whole entry): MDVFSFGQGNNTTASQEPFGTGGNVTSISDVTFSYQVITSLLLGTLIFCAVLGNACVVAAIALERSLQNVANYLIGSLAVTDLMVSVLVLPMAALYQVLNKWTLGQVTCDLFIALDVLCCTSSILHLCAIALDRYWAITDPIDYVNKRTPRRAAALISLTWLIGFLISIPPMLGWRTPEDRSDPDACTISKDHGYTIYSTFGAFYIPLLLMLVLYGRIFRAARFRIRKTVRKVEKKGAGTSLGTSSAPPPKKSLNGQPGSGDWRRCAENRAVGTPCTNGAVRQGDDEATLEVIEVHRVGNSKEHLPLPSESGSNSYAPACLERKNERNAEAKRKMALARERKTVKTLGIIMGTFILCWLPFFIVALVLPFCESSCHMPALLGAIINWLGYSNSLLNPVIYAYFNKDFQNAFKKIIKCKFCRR

[5] = molecular target: 5-hydroxytryptamine receptor 2A (Rattus norvegicus, UniProt P14842); assay: Displacement of [3H] ketanserin from 5-HT2A receptor in Sprague-Dawley rat cerebral cortex incubated for 30 mins by liquid scintillation counting analysis
5-hydroxytryptamine receptor 2A, sequence (P14842 whole entry): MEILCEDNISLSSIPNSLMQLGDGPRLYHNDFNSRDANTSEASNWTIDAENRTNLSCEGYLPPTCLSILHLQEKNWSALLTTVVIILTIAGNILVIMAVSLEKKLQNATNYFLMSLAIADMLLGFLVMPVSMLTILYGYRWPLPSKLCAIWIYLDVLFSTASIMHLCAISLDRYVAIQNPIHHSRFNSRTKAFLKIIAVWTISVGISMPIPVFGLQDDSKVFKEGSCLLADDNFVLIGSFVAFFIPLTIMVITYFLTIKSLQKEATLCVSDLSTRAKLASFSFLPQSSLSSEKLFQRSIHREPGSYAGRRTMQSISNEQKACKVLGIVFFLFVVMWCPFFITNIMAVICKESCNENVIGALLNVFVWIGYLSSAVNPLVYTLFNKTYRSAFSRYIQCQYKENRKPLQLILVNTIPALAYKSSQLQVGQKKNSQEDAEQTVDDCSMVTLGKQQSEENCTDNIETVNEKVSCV

[6] = molecular target: Histamine H1 receptor (Cavia porcellus, UniProt P31389); assay: Displacement of [3H]mepyramine from histamine H1 receptor in guinea pig cerebellum incubated for 60 mins by liquid scintillation counting analysis
Histamine H1 receptor, sequence (P31389 whole entry): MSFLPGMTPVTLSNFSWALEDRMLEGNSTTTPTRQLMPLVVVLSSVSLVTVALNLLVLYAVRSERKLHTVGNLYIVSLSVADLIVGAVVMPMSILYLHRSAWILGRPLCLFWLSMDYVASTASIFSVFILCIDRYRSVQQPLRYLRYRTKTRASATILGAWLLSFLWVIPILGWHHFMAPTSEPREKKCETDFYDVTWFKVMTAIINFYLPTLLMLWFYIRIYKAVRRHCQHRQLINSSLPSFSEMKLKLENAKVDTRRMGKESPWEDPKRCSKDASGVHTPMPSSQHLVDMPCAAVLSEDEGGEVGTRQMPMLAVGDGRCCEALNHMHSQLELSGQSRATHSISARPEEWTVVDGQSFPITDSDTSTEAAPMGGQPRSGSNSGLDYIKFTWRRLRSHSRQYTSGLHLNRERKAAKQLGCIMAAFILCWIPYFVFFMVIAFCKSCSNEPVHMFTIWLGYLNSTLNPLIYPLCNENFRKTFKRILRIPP

[7] = molecular target: T3, Adrenergic receptor alpha-1 (Rattus norvegicus, UniProt P15823+P23944+P43140); assay: Displacement of [3H]prazosin from adrenergic alpha1 receptor in Sprague-Dawley rat cerebral cortex incubated for 60 mins by liquid scintillation counting analysis
T3 sequence (P15823 whole entry): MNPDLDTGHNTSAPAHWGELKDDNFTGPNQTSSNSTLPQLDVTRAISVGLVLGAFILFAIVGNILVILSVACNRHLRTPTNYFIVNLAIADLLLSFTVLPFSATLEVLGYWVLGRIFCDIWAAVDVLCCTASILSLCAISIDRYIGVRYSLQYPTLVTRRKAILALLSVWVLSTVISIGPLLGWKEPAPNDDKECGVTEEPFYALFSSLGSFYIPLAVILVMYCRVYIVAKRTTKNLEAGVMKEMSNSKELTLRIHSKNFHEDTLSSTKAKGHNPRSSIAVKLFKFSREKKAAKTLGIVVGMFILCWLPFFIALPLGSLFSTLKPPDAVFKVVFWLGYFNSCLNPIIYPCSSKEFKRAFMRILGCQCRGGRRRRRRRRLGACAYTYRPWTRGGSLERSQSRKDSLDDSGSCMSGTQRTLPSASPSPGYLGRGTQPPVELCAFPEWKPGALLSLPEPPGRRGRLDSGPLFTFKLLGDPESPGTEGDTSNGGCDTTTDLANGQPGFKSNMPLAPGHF
T3 sequence (P23944 whole entry): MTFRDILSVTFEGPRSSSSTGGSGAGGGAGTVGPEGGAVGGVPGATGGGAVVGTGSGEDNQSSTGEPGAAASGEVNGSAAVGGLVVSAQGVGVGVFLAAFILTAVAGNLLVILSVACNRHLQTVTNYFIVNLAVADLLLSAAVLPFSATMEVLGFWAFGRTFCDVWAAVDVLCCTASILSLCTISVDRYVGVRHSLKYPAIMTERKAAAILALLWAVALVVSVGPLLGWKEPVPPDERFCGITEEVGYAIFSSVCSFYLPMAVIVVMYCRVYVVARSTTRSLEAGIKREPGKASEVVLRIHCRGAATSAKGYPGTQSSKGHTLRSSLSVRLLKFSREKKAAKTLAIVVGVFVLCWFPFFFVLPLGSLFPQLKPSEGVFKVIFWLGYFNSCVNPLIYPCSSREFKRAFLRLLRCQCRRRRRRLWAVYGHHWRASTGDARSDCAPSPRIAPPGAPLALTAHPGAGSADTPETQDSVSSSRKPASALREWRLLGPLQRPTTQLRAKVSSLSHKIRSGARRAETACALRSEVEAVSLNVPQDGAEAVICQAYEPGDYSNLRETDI
T3 sequence (P43140 whole entry): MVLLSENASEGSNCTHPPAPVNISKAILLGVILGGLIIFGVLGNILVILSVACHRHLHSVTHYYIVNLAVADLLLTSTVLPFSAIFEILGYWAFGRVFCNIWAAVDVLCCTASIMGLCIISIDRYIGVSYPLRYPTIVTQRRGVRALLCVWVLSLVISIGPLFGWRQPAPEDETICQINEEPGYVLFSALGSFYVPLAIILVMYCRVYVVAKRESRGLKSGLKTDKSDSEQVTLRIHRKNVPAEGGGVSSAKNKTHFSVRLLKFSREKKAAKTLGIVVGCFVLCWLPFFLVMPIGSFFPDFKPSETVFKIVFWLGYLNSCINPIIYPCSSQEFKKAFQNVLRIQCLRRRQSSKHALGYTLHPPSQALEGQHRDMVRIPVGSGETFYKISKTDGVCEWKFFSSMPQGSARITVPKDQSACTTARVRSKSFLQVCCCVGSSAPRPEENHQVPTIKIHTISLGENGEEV

[8] = Toxicity in po dosed Chinese Kun Ming mouse assessed as lethality after 24 hrs; type: organism-based; conditions: in vivo
[9] = test system: Mus musculus; assay: Inhibition of MK-801 induced hyperactivity in po dosed Chinese Kun Ming mouse administered for 60 mins followed by MK-801 challenge and measured for 90 mins; type: functional
[10] = test system: Mus musculus; assay: Inhibition of apomorphine-induced climbing behavior in po dosed Chinese Kun Ming mouse administered for 30 mins followed by apomorphine challenge and measured for 10 to 30 mins; type: functional
[11] = Induction of catalepsy in po dosed Chinese Kun Ming mouse assessed as increase in unwanted extrapyramidal motor disturbances measured for 60 seconds; type: organism-based; conditions: in vivo, 1 min
[12] = Therapeutic index, ratio of ED50 for induction of catalepsy in po dosed Chinese Kun Ming mouse to ED50 for inhibition of apomorphine-induced climbing behavior in po dosed Chinese Kun Ming mouse; type: organism-based; conditions: in vivo, read-out: Ratio ED50
[13] = Therapeutic index, ratio of ED50 for induction of catalepsy in po dosed Chinese Kun Ming mouse to ED50 for inhibition of MK-801 induced hyperactivity in po dosed Chinese Kun Ming mouse; type: organism-based; conditions: in vivo, read-out: Ratio ED50

| Structure (SMILES) | Ki [1] | Ki [2] | Ki [3] | Ki [4] | Ki [5] | Ki [6] | Ki [7] | LD50 at 24 h [8] | ED50 [9] | ED50 [10] | ED50 [11] | selectivity ratio [12] | selectivity ratio [13] |
| --- | --- | --- | --- | --- | --- | --- | --- | --- | --- | --- | --- | --- | --- |
| O=c1ccc(OCCCN2CCC(c3noc4cc(F)ccc34)CC2)nn1-c1c(F)cccc1F | 0.5 nM | 1580 nM | 0.5 nM | 5.9 nM | 0.3 nM | 2000 nM | 1098 nM | > 2000 mg/kg | 0.3 mg/kg | 0.47 mg/kg | 23.82 mg/kg | 50.7 | 79.4 |
| O=C(CCCN1CCC(O)(c2ccc(Cl)cc2)CC1)c1ccc(F)cc1 [HALOPERIDOL] | – | – | – | – | – | – | – | – | 0.19 mg/kg | 0.18 mg/kg | 0.56 mg/kg | 3.11 | 2.95 |
| Cc1nc2n(c(=O)c1CCN1CCC(c3noc4cc(F)ccc34)CC1)CCCC2 [RISPERIDONE] | – | – | – | – | – | – | – | – | 0.018 mg/kg | 0.02 mg/kg | 0.38 mg/kg | – | – |

The next lines start with results.

| Ki [1] | Ki [2] | Ki [3] | Ki [4] | Ki [5] | Ki [6] | Ki [7] | Structure (SMILES) | LD50 at 24 h [8] | ED50 [9] | ED50 [10] | ED50 [11] | selectivity ratio [12] | selectivity ratio [13] |
| --- | --- | --- | --- | --- | --- | --- | --- | --- | --- | --- | --- | --- | --- |
| 11.7 nM | 1 nM | 2.7 nM | – | 0.7 nM | 186 nM | 147 nM | O=c1ccc(OCCCN2CCC(c3noc4cc(F)ccc34)CC2)nn1-c1cc(Cl)ccc1Cl | – | – | – | – | – | – |
| 3.8 nM | 9.1 nM | 6.1 nM | 9 nM | 11.2 nM | 115 nM | 337 nM | O=c1ccc(OCCCN2CCC(c3noc4cc(F)ccc34)CC2)nn1-c1cc(F)ccc1F | – | – | – | – | – | – |
| 113 nM | 177 nM | 0.2 nM | 9.3 nM | 0.5 nM | 16.6 nM | 118 nM | O=c1ccc(OCCCN2CCC(c3noc4cc(F)ccc34)CC2)nn1-c1cccc(Cl)c1Cl | – | – | – | – | – | – |
